The subject of one experiment is SCC cells and LL/2 cells. The experiment is described as follows: Tumor cell invasion assay (modified Boyden chamber, Matrigel). It counts as cell-based, human and murine. The conditions noted are these: SCC and LL/2 cells in Matrigel chambers, 24 hrs. The procedure:
An in vitro assay is modified after that described previously by Chu et al. (1993) Proc. Natl. Acad. Sci. 90, 4261-4265, utilizing Matrigel®, a reconstituted basement membrane. In essence, a modified Boyden chamber containing an 8 μm-porosity polyvinylpyrolidone-free polycarbonate filter is precoated with Matrigel® (Collaborative Biomedical Products, Becton Dickinson, Bedford, Mass.). The lower well of the chamber is then filled with serum free medium containing 500 μl of 3T6 cell-conditioned medium as a chemoattractant. The upper well is then seeded with 200 μl of cell suspension at 1.0×10^4 cells/chamber plus additives as indicated. The chambers are then incubated at 37° C. for 24 hrs. […] The resulting cells contained in Matrigel®, as well as the cells in the lower chamber, are counted in a Coulter counter. Data are expressed as the percent invasion through the matrix and membrane relative to the migration through the control membrane. The “Invasion Index” is expressed as the ratio of the percent invasion of a test cell over the percent invasion of a control cell.
Overall treatment and group effects are assessed using an analysis of variance (ANOVA), with post-hoc comparisons based on the Newman-Keuls test (p<0.05). The association of mean HSP47 fluorescence labeling with the invasion index is evaluated using the nonparametric Spearman's rank-order correlation coefficient (rho).

The test system of another experiment is colligin/Hsp47. The experiment is described as follows: Cell surface labeling, cross-linking and immunoprecipitation. It counts as cell-based, human and murine. The conditions noted are these: 1 mM amiloride; SCC and LL/2 cells. On the procedure:
The methods used were previously described for the characterization of TM4SF complexes with integrins (Berditchevski et al., (1996) Molec. Biol. of the Cell 7, 193-207). In essence, cells are labeled with NHS-LC-biotin (Pierce, Rockford, Ill.) according to kit protocol, and lysed in immunoprecipitation buffer [1% Brij 96, 25 mM Hepes, pH 7.4, 150 mM NaCl, 5 mM MgCl2, 2 mM PMSF, 20 μg/ml apotinin, and 10 μg/ml leupeptin]. Immune complexes are collected on protein A beads pre-bound with antibodies, followed by four washes with immunoprecipitation buffer. For more “stringent” conditions, the immunoprecipitation buffer is supplemented with 0.2% SDS. Immune complexes are eluted from protein A beads with Laemmli elution buffer and proteins are separated by SDS-PAGE. Proteins are transferred to nitrocellulose membranes and visualized with HRPO-conjugated ExtrAvidin (Sigma Chemical Co., St. Louis Mo.) using Renaissance Chemiluminescent Reagents (NEN, Cambridge). Reprecipitations are preformed from Brij 96 lysates prepared from surface-biotinylated SCC cells. […]
(§1) For cross-linking, cells are treated with DTSSP, a membrane impermeable cross-linker or DSP. After solubilization in immunoprecipitation buffer supplemented with 0.2% SDS protein complexes are immunoprecipitated as above and analyzed under reducing conditions.

For experiment [1], the target named is T1, colligin/CBP2/Hsp47 on the surface of human carcinoma cells (human, UniProt P50454 19-418).
T1 construct: whole, on cells; Endogenous protein on intact cells or in plasma membrane preparations or Brij 96 lysates of surface-biotinylated cells; The 46K band is called unglycosylated Hsp47; also called colligin/Hsp47; cell surface colligin/Hsp47
T1 sequence (looked up): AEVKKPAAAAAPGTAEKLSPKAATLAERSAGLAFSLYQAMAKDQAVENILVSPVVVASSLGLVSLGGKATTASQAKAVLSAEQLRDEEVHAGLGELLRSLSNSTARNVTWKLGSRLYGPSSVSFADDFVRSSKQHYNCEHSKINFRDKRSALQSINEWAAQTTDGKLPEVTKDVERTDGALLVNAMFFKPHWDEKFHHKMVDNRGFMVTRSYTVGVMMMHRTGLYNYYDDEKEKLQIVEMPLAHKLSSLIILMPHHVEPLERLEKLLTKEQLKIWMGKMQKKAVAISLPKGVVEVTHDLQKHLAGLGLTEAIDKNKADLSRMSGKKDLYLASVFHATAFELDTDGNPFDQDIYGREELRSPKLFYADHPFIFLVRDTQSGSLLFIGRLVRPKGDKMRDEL
In words: cross-linking (DSP) and immunoprecipitation with anti-CD81 mAbs, SCC cells. On the procedure:
(§2) Reprecipitations are preformed from Brij 96 lysates prepared from surface-biotinylated SCC cells. After five washes with the immunoprecipitation buffer, the protein complexes are dissociated with 0.5% SDS added to the immunoprecipitation buffer. The eluates are subsequently diluted 1:1 with immunoprecipitation buffer and re-precipitated with the appropriate antibodies directly coupled to Sepharose beads. The samples are then processed as described above.
as §1
(§3) Membrane surface proteins are consistently co-precipitated with anti-colligin/Hsp47 antibodies. In cross-linking studies, SCC and LL/2 cells are first pre-treated with a cleavable cross-linker, DSP, then surface labeled with biotin or [^125]-I, and subsequent immunoprecipitation is carried out under stringent conditions to disrupt the noncovalent association between Hsp and tetraspanin protein. […] A characteristic 47K band is readily detected in all anti-CD9 immunoprecipitates and protein band of 22K, similar in size to CD9/or CD81, is co-precipitated with anti-colligin/Hsp47. […]

Experiment [2] addresses T2, colligin/Hsp47 on the surface of murine Lewis Lung Carcinoma (LL/2) cells (murine, UniProt P19324 18-417).
T2 construct: whole, on cells; Endogenous protein of LL/2 cells
T2 sequence (looked up): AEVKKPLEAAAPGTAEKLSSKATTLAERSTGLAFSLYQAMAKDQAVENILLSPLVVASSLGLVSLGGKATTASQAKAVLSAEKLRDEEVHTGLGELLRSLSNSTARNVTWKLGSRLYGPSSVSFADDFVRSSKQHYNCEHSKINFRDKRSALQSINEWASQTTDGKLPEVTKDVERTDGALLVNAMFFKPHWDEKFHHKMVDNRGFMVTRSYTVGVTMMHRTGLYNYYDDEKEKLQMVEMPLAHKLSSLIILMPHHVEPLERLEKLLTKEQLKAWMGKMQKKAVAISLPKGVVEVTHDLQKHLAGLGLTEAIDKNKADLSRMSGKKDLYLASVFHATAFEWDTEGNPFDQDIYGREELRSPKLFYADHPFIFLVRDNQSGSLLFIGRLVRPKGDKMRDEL
In words: cross-linking (DSP) and immunoprecipitation with anti-CD81 mAbs, LL/2 cells. On the procedure:
as §2, §1, §3

Regarding `N=C(N)NC(=O)c1nc(Cl)c(N)nc1N` [amiloride], the invasion index entry in the experiment with SCC cells and LL/2 cells is listed as “dramatically decreases the invasion index”. Also, the “amount of colligin/Hsp47 recovered following immunoprecipitation” value in the experiment on colligin/Hsp47 was “greatly enhances”.

B1: CD81 on human SCC cells (other, UniProt P60033 1-236, looked up)
chain: MGVEGCTKCIKYLLFVFNFVFWLAGGVILGVALWLRHDPQTTNLLYLELGDKPAPNTFYVGIYILIAVGAVMMFVGFLGCYGAIQESQCLLGTFFTCLVILFACEVAAGIWGFVNKDQIAKDVKQFYDQALQQAVVDDDANNAKAVVKTFHETLDCCGSSTLTALTTSVLKNNLCPSGSNIISNLFKEDCHQKIDDLFSGKLYLIGIAAIVVAVIMIFEMILSMVLCCGIRNSSVY
notes: whole, on cells
In the case of B1, the binding result in experiment [1] is on record as “no binding”.

B2: CD81 on murine LL/2 cells (other, UniProt P35762 1-236, looked up)
chain: MGVEGCTKCIKYLLFVFNFVFWLAGGVILGVALWLRHDPQTTSLLYLELGNKPAPNTFYVGIYILIAVGAVMMFVGFLGCYGAIQESQCLLGTFFTCLVILFACEVAAGIWGFVNKDQIAKDVKQFYDQALQQAVMDDDANNAKAVVKTFHETLNCCGSNALTTLTTTILRNSLCPSGGNILTPLLQQDCHQKIDELFSGKLYLIGIAAIVVAVIMIFEMILSMVLCCGIRNSSVY
notes: whole, on cells
As for B2, in experiment [2], the binding result was “no binding”.

These data come from patent US7361730B1, “Surface localized colligin/Hsp47 in carcinoma cells” (University of Maryland, priority 1999, dated 2008).
